Experiments:
U266 = test: Cytotoxicity of EA in tumor cell line U266; type: cell-based; conditions: Homo sapiens, U-266, mean of at least two experiments
HCT116 = test: Cytotoxicity of EA in tumor cell line HCT116; type: cell-based; conditions: Homo sapiens, HCT-116, mean of at least two experiments
Wnt/β-catenin signaling = test: TOPflash reporter assay in SW480 cells; type: cell-based, human; conditions: 24 hours
Protocol: FIG. 7. EA destabilizes the LEF-1/β-catenin complex. (A) SW480 cells were treated with increasing amounts of EA for 16 hours. Cells were lysed, and IP was completed with anti-β-catenin monoclonal antibody. The immune complexes were analyzed by immunoblotting with anti-LEF-1, anti-α-catenin and anti-β-catenin antibodies. (B) EA inhibits Wnt/β-catenin signaling in SW480 cells. SW480 cells were transfected with TOPflash reporter and control plasmid pCMXβgal. After transfection for 24 hours, cells were treated with increasing concentrations of EA for another 24 hours as indicated. Cells were then harvested and luciferase values were determined. The results are expressed as relative luciferase activity (%) normalized to a β-galactosidase control. For screening of the drug library, HEK293 cells were grown for at least 24 hours in 10 cm plates prior to transfection. At 50% confluence, cells were transfected with 5 μg of TOPflash reporter, 1 μg expression vector for Dvl, 1 μg of control plasmid pCMXβgal and carrier DNA pcDNA3 plasmid for a total of 10 μg/plate. After transfection for 24 hours, cells were harvested and dispersed in 96-well microtiter plates. […] Then luciferase values were determined. In the Results section, data are expressed as fold stimulation of luciferase activity compared to the basal level. […]

Normal PBMC = test: Cell viability assay (MTT) with normal peripheral blood mononuclear cells; type: cell-based, human; conditions: Homo sapiens; Normal PBMC from five normal individuals; 48 hours; mean
HepG2 = test: Cytotoxicity of EA in tumor cell line HepG2; type: cell-based; conditions: Homo sapiens, mean of at least two experiments
CLL cells = test: Levels of O2− or H2O2 in CLL cells treated with EA; type: cell-based, human; conditions: results not shown
β-catenin = target: T1, β-catenin (Homo sapiens, UniProt P35222); test: Immunoprecipitation and immunoblotting with anti-EA antibody: β-catenin; type: binding
T1 construct: endogenous in cells
T1 sequence (P35222 whole entry): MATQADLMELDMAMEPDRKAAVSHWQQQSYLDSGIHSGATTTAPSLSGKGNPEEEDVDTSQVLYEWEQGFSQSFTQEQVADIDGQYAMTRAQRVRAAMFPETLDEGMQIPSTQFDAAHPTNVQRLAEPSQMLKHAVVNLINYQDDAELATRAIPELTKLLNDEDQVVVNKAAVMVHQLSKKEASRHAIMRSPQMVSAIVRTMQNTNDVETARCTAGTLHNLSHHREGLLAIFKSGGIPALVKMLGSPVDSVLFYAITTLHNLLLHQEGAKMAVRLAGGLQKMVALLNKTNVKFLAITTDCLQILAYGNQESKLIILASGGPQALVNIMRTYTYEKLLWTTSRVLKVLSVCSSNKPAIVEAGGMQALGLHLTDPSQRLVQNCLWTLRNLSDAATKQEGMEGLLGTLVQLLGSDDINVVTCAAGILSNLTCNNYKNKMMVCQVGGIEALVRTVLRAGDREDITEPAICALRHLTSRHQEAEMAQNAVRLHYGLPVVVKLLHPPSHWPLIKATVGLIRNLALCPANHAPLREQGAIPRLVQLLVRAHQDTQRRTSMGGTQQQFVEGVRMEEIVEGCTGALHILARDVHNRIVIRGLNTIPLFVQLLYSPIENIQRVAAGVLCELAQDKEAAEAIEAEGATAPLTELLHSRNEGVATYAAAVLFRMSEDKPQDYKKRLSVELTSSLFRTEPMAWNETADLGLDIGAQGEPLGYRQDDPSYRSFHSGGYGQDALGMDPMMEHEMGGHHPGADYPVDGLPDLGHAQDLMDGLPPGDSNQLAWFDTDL
Protocol: FIG. 6. EA binds to LEF-1 in primary CLL and SW480 cells. (A) lysates from CLL cells exposed to 10 μM EA for 8 hours or 24 hours were immunoprecipitated with anti-LEF-1 antibody. The immune complexes were analyzed by immunoblotting with anti-LEF-1 and anti-EA antibodies. (B) SW480 cells were treated with indicated amounts of EA for 16 hours. Cell lysates were immunoprecipitated with anti-β-catenin antibody (Santa Cruz Biotechnology, Santa Cruz, Calif.). The immune complexes were analyzed by immunoblotting with anti-EA and anti-β-catenin antibodies. (C) SW480 cells were exposed to 50 μM of EA for 16 hours and cell lysates were immunoprecipitated with anti-β-catenin antibody. The proteins in the immunoprecipitates were resolved by SDS-PAGE, transferred, and probed with indicated antibodies.
A conjugate of EA with Keyhole Limpet Hemocyanin (KLH, Sigma) was prepared by thiolation of KLH with N-succinimidyl S-acetylthioacetate (SATA), followed by allowing the SATA-KLH conjugate to form a Michael adduct with EA, as described in Hermanson (1996). Immunization of rabbits was performed by three 1 mL subcutaneous injections of approximately 0.4 mg EA-KLH conjugates. Complete Freund's adjuvant was used for the first injection. The second and third injections were performed 3 and 6 weeks after the first, using incomplete adjuvant. […]

- binding to β-catenin (β-catenin; CLL extracts, data not shown): did not bind detectably
Structure (SMILES): C=C(CC)C(=O)c1ccc(OCC(=O)O)c(Cl)c1Cl [Compound 1, Ethacrynic acid]
- IC50 (U266): 90 µM
- IC50 (HCT116): 58 µM
- concentrations with dose-dependent inhibition of TOPflash activity (Wnt/β-catenin signaling): ≥ 60 µM
- IC50 (Normal PBMC): 34.8 µM
- IC50 (HepG2): 223 µM
- levels of O2− or H2O2 in CLL cells (CLL cells): no significant increase
- detection of precipitated β-catenin by anti-EA antibody (β-catenin; SW480 cells, 16 hours): could not be detected by anti-EA antibody
